23 compounds from US10457687B2, “Aminoacid derivatives, a process for their preparation and pharmaceutical compositions containing them” (LES LABORATOIRES SERVIER, priority 2015, dated 2019) can be followed below.

The target in one assay is Mcl-1 protein (Homo sapiens, UniProt Q07820). In words: Inhibition of Mcl-1 by the fluorescence polarisation technique (Method 1 or Method 2). The format is binding. The note with it: fluorescence polarisation, Fluorescein labelled ligand; Method 1 (not underlined) or Method 2 (underlined); read-out: IC50 (μM) Mcl-1 FP. The method, then: The relative binding potency of each compound was determined via Fluorescence Polarisation (FP).
Sequence of Mcl-1 protein (Q07820 whole entry): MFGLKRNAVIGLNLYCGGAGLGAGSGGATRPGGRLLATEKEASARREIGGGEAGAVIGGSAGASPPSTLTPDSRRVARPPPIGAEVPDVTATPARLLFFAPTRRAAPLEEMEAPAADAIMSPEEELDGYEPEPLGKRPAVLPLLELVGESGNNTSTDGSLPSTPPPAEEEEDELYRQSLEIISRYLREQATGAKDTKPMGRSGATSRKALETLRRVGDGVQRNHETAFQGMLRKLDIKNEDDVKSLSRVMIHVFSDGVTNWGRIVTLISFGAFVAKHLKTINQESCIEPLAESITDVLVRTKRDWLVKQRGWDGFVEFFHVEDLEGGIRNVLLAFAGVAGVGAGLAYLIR
An 11 point serial dilution of each compound was prepared in DMSO and 2 μl transferred into flat bottomed, low binding, 384-well plate (final DMSO concentration 5%). 38 μl of buffer (10 mM 4-(2-hydroxyethyl)-1-piperazineethanesulfonic acid [HEPES], 150 mM NaCl, 0.05% Tween 20, pH 7.4), containing the Fluorescein labelled ligand (final concentration 1 nM) and Mcl-1 protein (final concentration 5 nM) was then added.
An 11 point serial dilution of each compound was prepared in DMSO and 2 μl transferred into flat bottomed, low binding, 384-well plate (final DMSO concentration 5%). 38 μl of buffer (20 mM Na2HPO4, 1 mM EDTA, 50 mM NaCl, pH 7.4), containing the Fluorescein labelled ligand (final concentration 10 nM) and Mcl-1 protein (final concentration 10 nM) was then added.
For the compound `CC#Cc1sc2ncnc(NC(Cc3ccccc3OCc3ccnc(-c4ccccc4OC)n3)C(=O)O)c2c1-c1ccc(OCCN2CCN(C)CC2)c(Cl)c1C` [Example 45, N-[(5Sa)-5-{3-chloro-2-methyl-4-[2-(4-methylpiperazin-1-yl)ethoxy]phenyl}-6-(prop-1-yn-1-yl)thieno[2,3-d]pyrimidin-4-yl]-2-{[2-(2-methoxyphenyl)pyrimidin-4-yl]methoxy}-D-phenylalanine], the IC50 (usually the concentration that gives 50% inhibition) is 0.005 µM.

As for `CCc1sc2ncnc(N[C@H](Cc3ccccc3Cl)C(=O)O)c2c1-c1cccc2ccccc12` [Example 183, 2-chloro-N-[6-ethyl-5-(naphthalen-1-yl)thieno[2,3-d]pyrimidin-4-yl]-D-phenylalanine], the IC50 is 2.04 µM. As for `CCc1sc2ncnc(N[C@H](CC3CCCCC3)C(=O)O)c2c1-c1cccc2ccccc12` [Example 164, 3-cyclohexyl-N-[6-ethyl-5-(naphthalen-1-yl)thieno[2,3-d]pyrimidin-4-yl]-D-alanine], the IC50 was 0.227 µM.

Turning to `CCc1sc2ncnc(NC(Cc3ccccc3OCc3cccc(Cl)c3)C(=O)O)c2c1-c1cccc(Cl)c1C` [Example 149, 2-[(3-chlorobenzyl)oxy]-N-[(5Ra)-5-(3-chloro-2-methylphenyl)-6-ethylthieno[2,3-d]pyrimidin-4-yl]-D-phenylalanine], the IC50 turned out to be 14 µM. Regarding `CC(O)c1sc2ncnc(N[C@H](Cc3ccccc3)C(=O)O)c2c1-c1cccc2ccccc12` (single isomer, unassigned) [Example 206, N-[6-(1-hydroxyethyl)-5-(naphthalen-1-yl)thieno[2,3-d]pyrimidin-4-yl]-D-phenylalanine], the IC50 amounted to 8.84 µM. On to `CCc1sc2ncnc(NC(Cc3ccccc3)C(=O)O)c2c1-c1cccc(F)c1C` [Example 69, N-[6-ethyl-(5Sa)-5-(3-fluoro-2-methylphenyl)thieno[2,3-d]pyrimidin-4-yl]-D-phenylalanine], for which the IC50 is 0.109 µM. Same read-out and setting: in the case of `CCc1sc2ncnc(NC(Cc3ccccc3)C(=O)O)c2c1-c1ccc(OCCCN(C)C)c(Cl)c1C` [Example 60, N-((5Sa)-5-{3-chloro-4-[3-(dimethylamino)propoxy]-2-methylphenyl}-6-ethylthieno[2,3-d]pyrimidin-4-yl)-D-phenylalanine] it was 0.092 µM; in that of `CCc1sc2ncnc(NC(Cc3ccccc3)C(=O)O)c2c1-c1cccc(OC)c1C` [Example 76, N-[6-ethyl-(5Ra)-5-(3-methoxy-2-methylphenyl)thieno[2,3-d]pyrimidin-4-yl]-D-phenylalanine], 3.18 µM; in that of `Cc1sc2ncnc(N[C@H](Cc3ccccc3)C(=O)O)c2c1-c1cccc2ccccc12` [Example 196, N-[6-methyl-5-(naphthalen-1-yl)thieno[2,3-d]pyrimidin-4-yl]-D-phenylalanine], 2.91 µM. Still for that read-out and setting: for `CCc1sc2ncnc(N[C@@H](C(=O)O)c3cccc(-c4ccccc4)c3)c2c1-c1cccc2ccccc12` (single isomer, unassigned) [Example 189] the value was 8.33 µM. The same measure, in the same setting: in the case of `CCc1sc2ncnc(N[C@H](Cc3cccc4ccccc34)C(=O)O)c2c1-c1cccc2ccccc12` (single isomer, unassigned) [Example 186, N-[6-ethyl-5-(naphthalen-1-yl)thieno[2,3-d]pyrimidin-4-yl]-3-naphthalen-1-yl-D-alanine] it was 7.88 µM. In the case of `CCCc1sc2ncnc(NC(Cc3ccccc3)C(=O)O)c2c1-c1cccc2ccccc12` [Example 253, N-[(5Ra)-5-(naphthalen-1-yl)-6-propylthieno[2,3-d]pyrimidin-4-yl]-D-phenylalanine], the IC50 was 1.36 µM. As for `CCc1sc2ncnc(NC(Cc3ccccc3)C(=O)O)c2c1-c1cc(Cl)c(OCCN2CCN(C)CC2)c(Cl)c1C` [Example 55, N-((5Ra)-5-{3,5-dichloro-2-methyl-4-[2-(4-methylpiperazin-1-yl)ethoxy]phenyl}-6-ethylthieno[2,3-d]pyrimidin-4-yl)-D-phenylalanine], the IC50 was 8.84 µM. Still for that read-out and setting: in the case of `CCc1sc2ncnc(NC(Cc3ccccc3F)C(=O)O)c2c1-c1cccc2ccccc12` [Example 181, N-[6-ethyl-(5Sa)-5-(naphthalen-1-yl)thieno[2,3-d]pyrimidin-4-yl]-2-fluoro-D-phenylalanine] it was 0.299 µM; in that of `O=C(O)C(Cc1ccccn1)Nc1ncnc2sc(C(F)F)c(-c3cccc4ccccc34)c12` [Example 250, N-[6-(difluoromethyl)-(5Sa)-5-(naphthalen-1-yl)thieno[2,3-d]pyrimidin-4-yl]-3-pyridin-2-yl-D-alanine], 0.617 µM; in that of `CCc1sc2ncnc(NC(Cc3ccccc3)C(=O)O)c2c1-c1cccc(Br)c1C` [Example 97, N-[(5Sa)-5-(3-bromo-2-methylphenyl)-6-ethylthieno[2,3-d]pyrimidin-4-yl]-D-phenylalanine], 0.073 µM.

The same assay, now with this note: partial inhibitors; @ 50 μM test compound.
With `CCc1sc2ncnc(N[C@H](Cc3ccccc3OCCN3CCN(C)CC3)C(=O)O)c2c1-c1cccc(Cl)c1C` [Example 153, N-[(5Ra)-5-(3-chloro-2-methylphenyl)-6-ethylthieno[2,3-d]pyrimidin-4-yl]-2-[2-(4-methylpiperazin-1-yl)ethoxy]-D-phenylalanine], the “percentage fluorescence polarisation inhibition, Mcl-1 FP” value was determined as 75.7% @ 50 μM. Same read-out and setting: in the case of `CCc1sc2ncnc(N[C@H](Cc3ccccc3[N+](=O)[O-])C(=O)O)c2c1-c1cccc(Cl)c1C` [Example 135, N-[(5Ra)-5-(3-chloro-2-methylphenyl)-6-ethylthieno[2,3-d]pyrimidin-4-yl]-2-nitro-D-phenylalanine] it was 75.25% @ 50 μM; in that of `CCc1sc2ncnc(NC(Cc3ccccc3)C(=O)O)c2c1-c1cccc2c1c(Cl)cn2CCN1CCCCC1` [Example 234, N-((5Ra)-5-{3-chloro-1-[2-(piperidin-1-yl)ethyl]-1H-indol-4-yl}-6-ethyl-thieno[2,3-d]pyrimidin-4-yl)-D-phenylalanine], 68.7% @ 50 μM. The same measure, in the same setting: in the case of `COc1ccccc1C[C@@H](Nc1ncnc2sc(C(C)C)c(-c3cccc(Cl)c3C)c12)C(=O)O` [Example 222, N-[(5Ra)-5-(3-chloro-2-methylphenyl)-6-(propan-2-yl)thieno[2,3-d]pyrimidin-4-yl]-2-methoxy-D-phenylalanine] it was 70% @ 50 μM.

The same assay, now with this note: partial inhibitors; @ 100 μM test compound; 100 µM.
With `CC(O)c1sc2ncnc(N[C@H](Cc3ccccc3)C(=O)O)c2c1-c1cccc2ccccc12` (single isomer, unassigned) [Example 203, N-[6-(1-hydroxyethyl)-5-(naphthalen-1-yl)thieno[2,3-d]pyrimidin-4-yl]-D-phenylalanine], the “percentage fluorescence polarisation inhibition, Mcl-1 FP” value turned out to be 71.85% @ 100 μM.

The same assay, now with this note: partial inhibitors; @ 200 μM test compound.
Consider `CCc1sc2ncnc(N[C@H](Cc3ccccc3)C(=O)O)c2c1-c1cccc2cnn(C)c12` [Example 89, N-[6-ethyl-(5Ra)-5-(1-methyl-1H-indazol-7-yl)thieno[2,3-d]pyrimidin-4-yl]-D-phenylalanine], for which the “percentage fluorescence polarisation inhibition, Mcl-1 FP” value stood at 72.13% @ 200 μM.

Staying with this assay, now noted: partial inhibitors; @ 200 μM test compound; read-out: percentage fluorescence polarisation inhibition, Mcl-1 FP.
With `CCc1sc2ncnc(N[C@H](Cc3ccccc3)C(=O)O)c2c1-c1cccc2cccnc12` [Example 99, N-[6-ethyl-5-(quinolin-8-yl)thieno[2,3-d]pyrimidin-4-yl]-D-phenylalanine], the inhibition (as a rule, the drop in the measured response relative to a control, in per cent) at 200 µM was found to be 28.3%.
